From US20240300932A1, “N-PHENYLIMINE DERIVATIVE AND PREPARATION METHOD AND USE THEREOF” (Guizhou University, priority 2023, published 2024)

Experiments:
Echinochloa crusgalli = experiment: Post-emergence herbicidal activity test (stem and leaf spray, pot culture); format: in vivo; details: 3 weeks after spraying
Procedure, shortened: (§1)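 Foliar spray, 2–3-leaf stage, 10/5/2.5 g/mu; acetone/Tween 80 + methyl oleate 1.5 L/ha. Greenhouse 3 wk, 20–30 °C. Score: fresh-wt control, grade 5 ≥85% … grade 0 <5%.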

Portulaca oleracea = experiment: as above; format: in vivo; details: 3 weeks after spraying
Procedure, shortened: as §1

Setaria viridis = experiment: as above; format: in vivo; details: 3 weeks after spraying
Procedure, shortened: as §1

Amaranthus retroflexus = experiment: as above; format: in vivo; details: 3 weeks after spraying
Procedure, shortened: as §1

Abutilon theophrasti = experiment: as above; format: in vivo; details: 3 weeks after spraying
Procedure, shortened: as §1

Trifoliumre pensL. = experiment: as above; format: in vivo; details: 3 weeks after spraying
Procedure, shortened: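 Rates of 10, 5 and 2.5 g/mu were applied in a single spray-tower treatment to 2–3-leaf plants, thinned to 10 per pot. Formulation: acetone solution, Tween 80, 1.5 L/ha methyl oleate synergist. Weed response assessed after 3 further greenhouse weeks; mean of three experiments.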

O=C1C2=C(CCCC2)C(=O)N1c1cc(OCc2ccc(F)cc2)c(Cl)cc1F [Compound C10, 2-(4-chloro-2-fluoro-5-((4-fluorobenzyl)oxy)phenyl)-4,5,6,7-tetrahydro-1H-isoindole-1,3(2H)-dione]
Post-emergence herbicidal activity, E. crusgalli (grade) (Echinochloa crusgalli; dosage 2.5 g/mu): 1 (Grade 1: the growth control rate is greater than or equal to 5% and less than 20%) | Post-emergence herbicidal activity, E. crusgalli (grade) (Echinochloa crusgalli; dosage 5 g/mu): 2 (Grade 2: the growth control rate is greater than or equal to 20% and less than 40%) | Post-emergence herbicidal activity, E. crusgalli (grade) (Echinochloa crusgalli; dosage 10 g/mu): 3 (Grade 3: the growth control rate is greater than or equal to 40% and less than 60%) | Post-emergence herbicidal activity, P. oleracea (grade) (Portulaca oleracea; dosage 2.5 g/mu): 5 (Grade 5: the growth control rate is greater than or equal to 85%) | Post-emergence herbicidal activity, P. oleracea (grade) (Portulaca oleracea; dosage 5 g/mu): 5 (Grade 5: the growth control rate is greater than or equal to 85%) | Post-emergence herbicidal activity, P. oleracea (grade) (Portulaca oleracea; dosage 10 g/mu): 5 (Grade 5: the growth control rate is greater than or equal to 85%) | Post-emergence herbicidal activity, S. viridis (grade) (Setaria viridis; dosage 2.5 g/mu): 2 (Grade 2: the growth control rate is greater than or equal to 20% and less than 40%) | Post-emergence herbicidal activity, S. viridis (grade) (Setaria viridis; dosage 5 g/mu): 3 (Grade 3: the growth control rate is greater than or equal to 40% and less than 60%) | Post-emergence herbicidal activity, S. viridis (grade) (Setaria viridis; dosage 10 g/mu): 4 (Grade 4: the growth control rate is greater than or equal to 60% and less than 85%) | Post-emergence herbicidal activity, A. retroflexus (grade) (Amaranthus retroflexus; dosage 2.5 g/mu): 5 (Grade 5: the growth control rate is greater than or equal to 85%) | Post-emergence herbicidal activity, A. retroflexus (grade) (Amaranthus retroflexus; dosage 5 g/mu): 5 (Grade 5: the growth control rate is greater than or equal to 85%) | Post-emergence herbicidal activity, A. retroflexus (grade) (Amaranthus retroflexus; dosage 10 g/mu): 5 (Grade 5: the growth control rate is greater than or equal to 85%) | Post-emergence herbicidal activity, A. theophrasti (grade) (Abutilon theophrasti; dosage 2.5 g/mu): 5 (Grade 5: the growth control rate is greater than or equal to 85%) | Post-emergence herbicidal activity, A. theophrasti (grade) (Abutilon theophrasti; dosage 5 g/mu): 5 (Grade 5: the growth control rate is greater than or equal to 85%) | Post-emergence herbicidal activity, A. theophrasti (grade) (Abutilon theophrasti; dosage 10 g/mu): 5 (Grade 5: the growth control rate is greater than or equal to 85%) | Post-emergence herbicidal activity, Trifoliumre pensL. (grade) (Trifoliumre pensL.; dosage 2.5 g/mu): 5 (Grade 5: the growth control rate is greater than or equal to 85%) | Post-emergence herbicidal activity, Trifoliumre pensL. (grade) (Trifoliumre pensL.; dosage 5 g/mu): 5 (Grade 5: the growth control rate is greater than or equal to 85%) | Post-emergence herbicidal activity, Trifoliumre pensL. (grade) (Trifoliumre pensL.; dosage 10 g/mu): 5 (Grade 5: the growth control rate is greater than or equal to 85%) | melting point: 119 to 121 °C
